The nature of this assay: Displacement of [3H]-quipazine from 5-HT3 receptor in mouse/rat NG108-15 cells. It is filed as cell-based.

In ChEMBL document CHEMBL3091286 (Bioorg Med Chem, 2013) one finds pKi data, which are given here for 1 molecule.

`O=C1c2cccc3c2[C@H](CCC3)CN1[C@@H]1CN2CCC1CC2` [PALONOSETRON] showed a negative logarithm of the Ki (pKi) of 10.5.

By pKi is commonly meant the negative decadic logarithm of the Ki, by convention in mol/L.
